Results from patent US11987588B2, “Modulators of the beta-3 adrenergic receptor useful for the treatment or prevention of heart failure and disorders related thereto” (Arena Pharmaceuticals, Inc., priority 2017, dated 2024).

Target: Beta-3 Adrenergic Receptor (Homo sapiens (Human), UniProt P13945)
Experiment: Homogeneous Time-Resolved Fluorescence (HTRF) cAMP antagonist assay, IC50 determination
Type: cell-based
Conditions: CHO-K1 cells stably expressing recombinant receptor, isoproterenol at EC90
Method in brief: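 CHO-K1 cells stably expressing receptor, 1500 cells/well, preincubated briefly with 10-point 5-fold compound series (top final typically 10 or 100 μM) in PBS with 1 mM IBMX, then challenged with isoproterenol at EC90 for 1 h at room temperature. cAMP read by HTRF against on-plate standard curve; IC50 from dose-response.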

Chain of Beta-3 Adrenergic Receptor (P13945 whole entry, species assumed): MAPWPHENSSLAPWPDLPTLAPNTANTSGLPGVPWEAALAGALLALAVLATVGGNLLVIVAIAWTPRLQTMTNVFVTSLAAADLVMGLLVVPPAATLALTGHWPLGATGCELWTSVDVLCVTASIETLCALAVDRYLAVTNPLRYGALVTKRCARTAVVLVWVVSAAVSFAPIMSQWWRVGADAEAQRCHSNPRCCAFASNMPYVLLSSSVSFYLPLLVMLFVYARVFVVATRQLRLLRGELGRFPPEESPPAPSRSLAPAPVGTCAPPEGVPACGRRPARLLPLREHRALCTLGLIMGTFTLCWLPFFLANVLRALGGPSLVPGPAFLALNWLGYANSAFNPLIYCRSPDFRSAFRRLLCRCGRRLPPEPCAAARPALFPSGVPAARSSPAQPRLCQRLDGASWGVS

| IC50 [nM] | Compound |
| --- | --- |
| 367 | C[C@@H](O)CNS(=O)(=O)c1cccc(OC[C@@H](O)CN[C@H]2COC3(CCN(S(=O)(=O)c4cnc5c(c4)N(C)CCO5)CC3)C2)c1 [Compound 436, 3-((S)-2-hydroxy-3-((R)-8-(1-methyl-2,3-dihydro-1H-pyrido[2,3-b][1,4]oxazin-7-ylsulfonyl)-1-oxa-8-azaspiro[4.5]decan-3-ylamino)propoxy)-N—((R)-2-hydroxypropyl)benzenesulfonamide] |
| 20.5 | CCOc1ccc(-c2ccc(CNC(C)C)cc2)cc1S(=O)(=O)N1CCC2(CC1)C[C@H](NC[C@H](O)COc1cccc(S(=O)(=O)NC)c1)CO2 [Compound 438, 3-((S)-3-((S)-8-(4-ethoxy-4′-((isopropylamino)methyl)biphenyl-3-ylsulfonyl)-1-oxa-8-azaspiro[4.5]decan-3-ylamino)-2-hydroxypropoxy)-N-methylbenzenesulfonamide] |
| 27.2 | CCOc1ccc(-c2ccc(CNC(C)C)cc2)cc1S(=O)(=O)N1CCC2(CC1)C[C@@H](NC[C@H](O)COc1cccc(S(=O)(=O)NC)c1)CO2 [Compound 439, 3-((S)-3-((R)-8-(4-ethoxy-4′-((isopropylamino)methyl)biphenyl-3-ylsulfonyl)-1-oxa-8-azaspiro[4.5]decan-3-ylamino)-2-hydroxypropoxy)-N-methylbenzenesulfonamide] |
| 112 | CC(C)NCc1ccc(-c2cccc(S(=O)(=O)N3CCC4(CC3)C[C@@H](NC[C@H](O)COc3cccc(S(N)(=O)=O)c3)CO4)c2)cc1 [Compound 440, 3-((S)-2-hydroxy-3-((R)-8-(4′-((isopropylamino)methyl)biphenyl-3-ylsulfonyl)-1-oxa-8-azaspiro[4.5]decan-3-ylamino)propoxy)benzenesulfonamide] |
| 81.1 | CNS(=O)(=O)c1cccc(OC[C@@H](O)CNC2COC3(CCN(S(=O)(=O)c4cccnc4N(C)C)CC3)C2)c1 (stereo partly drawn) [Compound 441, 3-((2S)-3-(8-(2-(dimethylamino)pyridin-3-ylsulfonyl)-1-oxa-8-azaspiro[4.5]decan-3-ylamino)-2-hydroxypropoxy)-N-methylbenzenesulfonamide] |
| 367 | CNS(=O)(=O)c1cccc(OC[C@@H](O)CNC2COC3(CCN(S(=O)(=O)c4cccnc4N4CCOCC4)CC3)C2)c1 (stereo partly drawn) [Compound 442, 3-((2S)-2-hydroxy-3-(8-(2-morpholinopyridin-3-ylsulfonyl)-1-oxa-8-azaspiro[4.5]decan-3-ylamino)propoxy)-N-methylbenzenesulfonamide] |
| 36.9 | CNS(=O)(=O)c1cccc(OC[C@@H](O)CN[C@H]2COC3(CCN(S(=O)(=O)c4ccc5c(n4)OCC(=O)N5)CC3)C2)c1 [Compound 443, 3-((S)-2-hydroxy-3-((R)-8-(2-oxo-2,3-dihydro-1H-pyrido[2,3-b][1,4]oxazin-6-ylsulfonyl)-1-oxa-8-azaspiro[4.5]decan-3-ylamino)propoxy)-N-methylbenzenesulfonamide] |
| 31.8 | CNS(=O)(=O)c1cccc(OC[C@@H](O)CN[C@H]2COC3(CCN(S(=O)(=O)c4cnc5c(c4)NCCO5)CC3)C2)c1 [Compound 444, 3-((S)-3-((R)-8-(2,3-dihydro-1H-pyrido[2,3-b][1,4]oxazin-7-ylsulfonyl)-1-oxa-8-azaspiro[4.5]decan-3-ylamino)-2-hydroxypropoxy)-N-methylbenzenesulfonamide] |
| 30.4 | CCOc1ccc(S(=O)(=O)N2CCC3(CC2)CC(NC[C@H](O)COc2cccc(S(=O)(=O)NC)c2)CO3)cn1 (stereo partly drawn) [Compound 445, 3-((2S)-3-(8-(6-ethoxypyridin-3-ylsulfonyl)-1-oxa-8-azaspiro[4.5]decan-3-ylamino)-2-hydroxypropoxy)-N-methylbenzenesulfonamide] |
| 11.9 | CNS(=O)(=O)c1cccc(OC[C@@H](O)CN[C@@H]2COC3(CCN(S(=O)(=O)c4cccc(-c5ccc(C6(N)CC6)cc5)c4)CC3)C2)c1 [Compound 446, 3-((S)-3-((S)-8-(4′-(1-aminocyclopropyl)biphenyl-3-ylsulfonyl)-1-oxa-8-azaspiro[4.5]decan-3-ylamino)-2-hydroxypropoxy)-N-methylbenzenesulfonamide] |
| 19.9 | CNS(=O)(=O)c1cccc(OC[C@@H](O)CN[C@@H]2COC3(CCN(S(=O)(=O)c4cccc(-c5ccc(CN)cc5)c4C)CC3)C2)c1 [Compound 447, 3-((S)-3-((S)-8-(4′-(aminomethyl)-2-methylbiphenyl-3-ylsulfonyl)-1-oxa-8-azaspiro[4.5]decan-3-ylamino)-2-hydroxypropoxy)-N-methylbenzenesulfonamide] |
| 32 | CNS(=O)(=O)c1cccc(OC[C@@H](O)CN[C@@H]2COC3(CCN(S(=O)(=O)c4cccc(-c5ccc(CN)cc5)c4OC)CC3)C2)c1 [Compound 448, 3-((S)-3-((S)-8-(4′-(aminomethyl)-2-methoxybiphenyl-3-ylsulfonyl)-1-oxa-8-azaspiro[4.5]decan-3-ylamino)-2-hydroxypropoxy)-N-methylbenzenesulfonamide] |
| 12.2 | CNS(=O)(=O)c1cccc(OC[C@@H](O)CN[C@@H]2COC3(CCN(S(=O)(=O)c4cc(OC)cc(-c5ccc(CN)cc5)c4)CC3)C2)c1 [Compound 449, 3-((S)-3-((S)-8-(4′-(aminomethyl)-5-methoxybiphenyl-3-ylsulfonyl)-1-oxa-8-azaspiro[4.5]decan-3-ylamino)-2-hydroxypropoxy)-N-methylbenzenesulfonamide] |
| 28.2 | CCOc1nc2c(cc1S(=O)(=O)N1CCC3(CC1)C[C@H](NC[C@H](O)COc1cccc(S(=O)(=O)NC)c1)CO3)N(C)CCO2 [Compound 450, 3-((S)-3-((S)-8-(6-ethoxy-1-methyl-2,3-dihydro-1H-pyrido[2,3-b][1,4]oxazin-7-ylsulfonyl)-1-oxa-8-azaspiro[4.5]decan-3-ylamino)-2-hydroxypropoxy)-N-methylbenzenesulfonamide] |
| 2130 | CONS(=O)(=O)c1cccc(OC[C@@H](O)CN[C@H]2COC3(CCN(S(=O)(=O)c4cnc5c(c4)N(C)CCO5)CC3)C2)c1 [Compound 451, 3-((S)-2-hydroxy-3-((R)-8-(1-methyl-2,3-dihydro-1H-pyrido[2,3-b][1,4]oxazin-7-ylsulfonyl)-1-oxa-8-azaspiro[4.5]decan-3-ylamino)propoxy)-N-methoxybenzenesulfonamide] |
| 25.7 | CNc1nc2c(cc1S(=O)(=O)N1CCC3(CC1)C[C@@H](NC[C@H](O)COc1cccc(S(=O)(=O)NC)c1)CO3)N(C)CCO2 [Compound 452, 3-((S)-2-hydroxy-3-((R)-8-(1-methyl-6-(methylamino)-2,3-dihydro-1H-pyrido[2,3-b][1,4]oxazin-7-ylsulfonyl)-1-oxa-8-azaspiro[4.5]decan-3-ylamino)propoxy)-N-methylbenzenesulfonamide] |
| 115 | CNS(=O)(=O)c1cccc(OC[C@@H](O)CN[C@H]2COC3(CCN(S(=O)(=O)c4cc5c(nc4N(C)C)OCCN5C)CC3)C2)c1 [Compound 453, 3-((S)-3-((R)-8-(6-(dimethylamino)-1-methyl-2,3-dihydro-1H-pyrido[2,3-b][1,4]oxazin-7-ylsulfonyl)-1-oxa-8-azaspiro[4.5]decan-3-ylamino)-2-hydroxypropoxy)-N-methylbenzenesulfonamide] |
| 453 | CNS(=O)(=O)c1cccc(OC[C@@H](O)CN[C@H]2COC3(CCN(S(=O)(=O)c4cc5c(nc4O)OCCN5C)CC3)C2)c1 [Compound 454, 3-((S)-2-hydroxy-3-((R)-8-(6-hydroxy-1-methyl-2,3-dihydro-1H-pyrido[2,3-b][1,4]oxazin-7-ylsulfonyl)-1-oxa-8-azaspiro[4.5]decan-3-ylamino)propoxy)-N-methylbenzenesulfonamide] |
| 25.1 | CNS(=O)(=O)c1cccc(OC[C@@H](O)CN[C@H]2COC3(CCN(S(=O)(=O)c4cc5c(nc4N)OCCN5C)CC3)C2)c1 [Compound 455, 3-((S)-3-((R)-8-(6-amino-1-methyl-2,3-dihydro-1H-pyrido[2,3-b][1,4]oxazin-7-ylsulfonyl)-1-oxa-8-azaspiro[4.5]decan-3-ylamino)-2-hydroxypropoxy)-N-methylbenzenesulfonamide] |
| 16.4 | CCNS(=O)(=O)c1cccc(OC[C@@H](O)CN[C@H]2COC3(CCN(S(=O)(=O)c4cnc5c(c4)N(C)CCO5)CC3)C2)c1 [Compound 456, N-ethyl-3-((S)-2-hydroxy-3-((R)-8-(1-methyl-2,3-dihydro-1H-pyrido[2,3-b][1,4]oxazin-7-ylsulfonyl)-1-oxa-8-azaspiro[4.5]decan-3-ylamino)propoxy)benzenesulfonamide] |
| 29.6 | CN1CCOc2ncc(S(=O)(=O)N3CCC4(CC3)C[C@@H](NC[C@H](O)COc3cccc(S(=O)(=O)NCCF)c3)CO4)cc21 [Compound 457, N-(2-fluoroethyl)-3-((S)-2-hydroxy-3-((R)-8-(1-methyl-2,3-dihydro-1H-pyrido[2,3-b][1,4]oxazin-7-ylsulfonyl)-1-oxa-8-azaspiro[4.5]decan-3-ylamino)propoxy)benzenesulfonamide] |
| 45.7 | CN1CCOc2ncc(S(=O)(=O)N3CCC4(CC3)C[C@@H](NC[C@H](O)COc3cccc(S(N)(=O)=O)c3)CO4)cc21 [Compound 458, 3-((S)-2-hydroxy-3-((R)-8-(1-methyl-2,3-dihydro-1H-pyrido[2,3-b][1,4]oxazin-7-ylsulfonyl)-1-oxa-8-azaspiro[4.5]decan-3-ylamino)propoxy)benzenesulfonamide] |
| 160 | COCCNS(=O)(=O)c1cccc(OC[C@@H](O)CN[C@H]2COC3(CCN(S(=O)(=O)c4cnc5c(c4)N(C)CCO5)CC3)C2)c1 [Compound 459, 3-((S)-2-hydroxy-3-((R)-8-(1-methyl-2,3-dihydro-1H-pyrido[2,3-b][1,4]oxazin-7-ylsulfonyl)-1-oxa-8-azaspiro[4.5]decan-3-ylamino)propoxy)-N-(2-methoxyethyl)benzenesulfonamide] |
| 3020 | CN1CCOc2ncc(S(=O)(=O)N3CCC4(CC3)C[C@@H](NC[C@H](O)COc3cccc(S(=O)(=O)NCC#N)c3)CO4)cc21 [Compound 460, N-(cyanomethyl)-3-((S)-2-hydroxy-3-((R)-8-(1-methyl-2,3-dihydro-1H-pyrido[2,3-b][1,4]oxazin-7-ylsulfonyl)-1-oxa-8-azaspiro[4.5]decan-3-ylamino)propoxy)benzenesulfonamide] |
